From paper PMC7571145, “Multistep Synthesis and In Vitro Anticancer Evaluation of 2-Pyrazolyl-Estradiol Derivatives, Pyrazolocoumarin-Estradiol Hybrids and Analogous Compounds” (Molecules, 2020)

What was measured:
DU145 cells = assay: MTT cytotoxicity assay on DU145 prostate cancer cells; type: cell-based; conditions: for primary growth inhibitory screen, cell viability, DU145: 2.5 µM, 72 h, mean±SD, untreated control about 100; for IC50: Homo sapiens, DU-145, 72 h, compounds 1-7 µM, mean ± SD, read-out: IC50 on DU145
Protocol: (§1) Cytotoxicity screens were performed to assess the in vitro anticancer activity of the synthesized A-ring-linked 2-pyrazoles of estradiol, the pyrazolocoumarin-estradiol hybrids, and their structurally simplified non-steroidal analogs on various cancerous cell lines such as MCF-7, PC-3, DU145, and HeLa and on non-cancerous MRC-5 fibroblasts. The 2-acetyl-phenol starting materials (4, 5, and 15) were also included for comparison. All compounds were applied in 2.5 µM concentration for 72 h. The obtained cell viability data were used to construct a heat map (Figure 2) in order to select compounds that exert cancer cell line-specific cytotoxicity. […] Furthermore, some compounds discriminated only DU145 cells and could eliminate these type of prostate cancer cells.
(§2) To understand structure-function relationships, we also included the structural analogs of the selected compounds, namely 7a (C-17 acetate of 8a), 8c (C-17 OH counterpart of 7c), and 9a (steroidal pair of 19a) into subsequent analyses. […] For this, compounds were applied on MCF-7, PC-3, DU145, and HeLa and on non-cancerous MRC-5 fibroblasts in various concentrations for 72 h or were treated with cisplatin at different concentrations. On the viability data, dose–response curves were fitted (Figure S1) and IC50 values were calculated accordingly (Table 3). In agreement with the primary cytotoxicity screen (Table S1), the obtained IC50 concentrations clearly indicated which compound was selectively effective on one or more cancer cell lines. […] Typically, acetylated steroidal pyrazoles were less favorable than deacetylated counterparts due to reduced cancer cell selectivity (7c, 10a).
(§3) To evaluate the in vitro pharmacological effects of the synthesized molecules, each compound was first dissolved in cell culture grade DMSO (Sigma) to a final concentration of 10 mM. Using MTT colorimetric assay, the cytotoxicity of these compounds was evaluated on cancerous (MCF-7, HeLa, DU145, PC-3) and non-cancerous (MRC-5) cell lines. Briefly, 5000 cells/well of each cell line were seeded in 96-well plates and were left to grow overnight in a 5% CO2 atmosphere at 37 °C. On the next day, cells were treated with each derivative separately, in case of the primary screen, or only with the selected compounds upon IC50 determination. Cells were incubated with the test compounds for 72 h in a 5% CO2 atmosphere at 37 °C. End point was measured by incubating cells for 1 h with 0.5 mg/mL of MTT reagent (Serva) dissolved in serum free culture medium. The formazan crystals formed by metabolically active cells were later dissolved in DMSO. Optical density of the obtained solutions was measured at 570 nm using a Synergy HTX plate reader. […] The analysis and conclusions were made based on three independent experiments. Normalized data were analyzed and the heat map was constructed using GraphPad Prism 7 software.

HeLa cells = assay: MTT cytotoxicity assay on HeLa cells; type: cell-based; conditions: 72 h; for primary growth inhibitory screen, cell viability, HeLa: 2.5 µM, mean±SD, untreated control about 100; for IC50: Homo sapiens, HeLa, compounds 1-7 µM, mean ± SD, read-out: IC50 on HeLa
Protocol: as §1, §2, §3

PC-3 cells = assay: MTT cytotoxicity assay on PC-3 prostate cancer cells; type: cell-based; conditions: for primary growth inhibitory screen, cell viability, PC-3: 2.5 µM, 72 h, mean±SD, untreated control about 100; for IC50: Homo sapiens, PC-3, 72 h, compounds 1-7 µM, mean ± SD, read-out: IC50 on PC-3
Protocol: as §1, §2, §3

MCF-7 cells = assay: MTT cytotoxicity assay on MCF-7 cells; type: cell-based; conditions: for primary growth inhibitory screen, cell viability, MCF-7: 2.5 µM, 72 h, mean±SD, untreated control about 100; for IC50: Homo sapiens, MCF7, 72 h, compounds 1-7 µM, mean ± SD, read-out: IC50 on MCF-7
Protocol: as §1, §2, §3

MRC-5 fibroblasts = assay: MTT cytotoxicity assay on non-cancerous MRC-5 fibroblasts; type: cell-based; conditions: 72 h; for primary growth inhibitory screen, cell viability, MRC-5 / effect on non-cancerous fibroblasts: 2.5 µM; for primary growth inhibitory screen, cell viability, MRC-5 / IC50: MTT; for primary growth inhibitory screen, cell viability, MRC-5: mean±SD, untreated control about 100; for effect on non-cancerous fibroblasts: based on the heat map; for IC50: Homo sapiens, MRC5, compounds 1-7 µM, mean ± SD, read-out: IC50 on MRC-5
Protocol: as §1, §2, §3

Row | Compound | primary growth inhibitory screen, cell viability, DU145 (DU145 cells) | primary growth inhibitory screen, cell viability, HeLa (HeLa cells) | primary growth inhibitory screen, cell viability, PC-3 (PC-3 cells) | primary growth inhibitory screen, cell viability, MCF-7 (MCF-7 cells) | melting point [°C] | primary growth inhibitory screen, cell viability, MRC-5 (MRC-5 fibroblasts) | IC50 (DU145 cells) [µM] | IC50 (HeLa cells) [µM] | IC50 (PC-3 cells) [µM] | IC50 (MCF-7 cells) [µM] | effect on non-cancerous fibroblasts (MRC-5 fibroblasts) | IC50 (MRC-5 fibroblasts) [µM]
1 | CC(=O)O[C@H]1CC[C@H]2[C@@H]3CCc4cc(O)c(-c5nn(-c6ccc(C)cc6)cc5CO)cc4[C@H]3CC[C@]12C [Compound 10b] | ≥ 100±6.8 | 68.3±2.2 | 88.0±5.6 | 87.6±0.7 | 254 to 256 | 96.9±3.8 | – | – | – | – | – | –
2 | CC(=O)O[C@H]1CC[C@H]2[C@@H]3CCc4cc(O)c(-c5nn(-c6ccc(Cl)cc6)cc5CO)cc4[C@H]3CC[C@]12C [Compound 10c] | 77.3±6.3 | 72.4±4.2 | 81.6±6.8 | 63.2±2.2 | 288 to 290 | 96.4±10.1 | – | – | – | – | – | –
3 | C[C@]12CC[C@@H]3c4cc(-c5nn(-c6ccccc6)cc5CO)c(O)cc4CC[C@H]3[C@@H]1CC[C@@H]2O [Compound 11a] | 98.2±5.4 | 75.4±1.1 | 59.7±3.2 | 93.4±3.7 | 141 to 143 | ≥ 100±8.2 | > 7 | 4.3 ± 1 | 2.9 ± 1.3 | 6.8 ± 1 | no or very mild effect | > 7
4 | Cc1ccc(-n2cc(CO)c(-c3cc4c(cc3O)CC[C@@H]3[C@@H]4CC[C@]4(C)[C@@H](O)CC[C@@H]34)n2)cc1 [Compound 11b] | 97.5±10.1 | 70.1±4.5 | 74.3±2.3 | 80.4±2.9 | 201 to 203 | ≥ 100±2.2 | – | – | – | – | – | –
5 | C[C@]12CC[C@@H]3c4cc(-c5nn(-c6ccc(Cl)cc6)cc5CO)c(O)cc4CC[C@H]3[C@@H]1CC[C@@H]2O [Compound 11c] | 127.1±4.9 | 77.9±1.5 | 87.1±3.8 | ≥ 100±0.7 | 240 to 242 | ≥ 100±8.4 | – | – | – | – | – | –
6 | CC(=O)c1cc2c(cc1O)CCCC2 [Compound 15, 3-Acetyl-5,6,7,8-tetrahydro-2-naphthol] | ≥ 100±6.7 | 53.8±8.3 | ≥ 100±2.2 | ≥ 100±1.9 | 70 to 72 | ≥ 100±3.7 | > 7 | 3.6 ± 1.2 | > 7 | > 7 | no or very mild effect | > 7
7 | O=Cc1cn(-c2ccccc2)nc1-c1cc2c(cc1O)CCCC2 [Compound 17a, 3′-(3-Hydroxy-5,6,7,8-tetrahydronaphthalen-2-yl)-1′-phenyl-1′H-pyrazole-4′-carbaldehyde] | ≥ 100±6.4 | 53.7±3.3 | 71.0±20.9 | ≥ 100±2.3 | 137 to 138 | ≥ 100±7.3 | 5.62 ± 1 | 2.2 ± 1.1 | 4.3 ± 1 | 5.17 ± 1 | no or very mild effect | 6.26 ± 1.1
8 | Cc1ccc(-n2cc(C=O)c(-c3cc4c(cc3O)CCCC4)n2)cc1 [Compound 17b, 3′-(3-Hydroxy-5,6,7,8-tetrahydronaphthalen-2-yl)-1′-(4″-tolyl)-1′H-pyrazole-4′-carbaldehyde] | ≥ 100±16.8 | ≥ 100±3.9 | ≥ 100±3.0 | 93.2±6.0 | 151 to 153 | ≥ 100±14.5 | – | – | – | – | – | –
9 | O=Cc1cn(-c2ccc(Cl)cc2)nc1-c1cc2c(cc1O)CCCC2 [Compound 17c, 1′-(4″-Chlorophenyl)-3′-(3-hydroxy-5,6,7,8-tetrahydronaphthalen-2-yl)-1′H-pyrazole-4″-carbaldehyde] | 80.3±10.8 | ≥ 100±4.0 | 61.9±2.8 | 77.5±4.6 | 182 to 184 | ≥ 100±4.0 | > 7 | 6.23 ± 1 | 4.39 ± 1 | 4.12 ± 1 | no or very mild effect | 5.72 ± 1.1
10 | OCc1cn(-c2ccccc2)nc1-c1cc2c(cc1O)CCCC2 [Compound 18a, 3-(4′-(Hydroxymethyl)-1′-phenyl-1′H-pyrazol-3′-yl)-5,6,7,8-tetrahydro-2-naphthol] | 87.0±18.2 | ≥ 100±6.5 | 91.5±12.9 | 98.0±7.1 | 135 to 137 | ≥ 100±0.1 | – | – | – | – | – | –
11 | Cc1ccc(-n2cc(CO)c(-c3cc4c(cc3O)CCCC4)n2)cc1 [Compound 18b, 3-(4′-(Hydroxymethyl)-1′-(4″-tolyl)-1′H-pyrazol-3-yl)-5,6,7,8-tetrahydro-2-naphthol] | 45.3±2.5 | ≥ 100±8.7 | 99.6±7.7 | ≥ 100±5.3 | 163 to 165 | ≥ 100±2.6 | 2.7 ± 1.1 | > 7 | > 7 | > 7 | no or very mild effect | > 7
12 | OCc1cn(-c2ccc(Cl)cc2)nc1-c1cc2c(cc1O)CCCC2 [Compound 18c, 3-(1′-(4″-Chlorophenyl)-4′-(hydroxymethyl)-1′H-pyrazol-3′-yl)-5,6,7,8-tetrahydro-2-naphthol] | ≥ 100±4.3 | ≥ 100±6.6 | 90.9±3.0 | ≥ 100±4.7 | 154 to 156 | ≥ 100±2.3 | – | – | – | – | – | –
13 | O=c1oc2cc3c(cc2c2nn(-c4ccccc4)cc12)CCCC3 [Compound 19a, 2-Phenyl-7,8,9,10-tetrahydrobenzo[6,7]chromeno[4,3-c]pyrazol-4(2H)-one] | 21.6±0.5 | ≥ 100±8.7 | 95.4±1.3 | ≥ 100±3.9 | 221 to 223 | ≥ 100±3.0 | 1.41 ± 1.1 | > 7 | 4.7 ± 1 | 6.83 ± 1.1 | no or very mild effect | > 7
